Consider twelve molecules from US20260138959A1, “QUINAZOLINE DERIVATIVE COMPOUND AND USE THEREOF” (VORONOI INC., priority 2021, published 2026).

SMILES strings stand for the structures. Some results are limits rather than exact numbers.

In this experiment the test system is c-KIT V560G/D816V. Put plainly: Proliferation inhibitory activity on Ba/F3 cell (CellTiter-Glo, 72 hours), c-KIT V560G/D816V. The conditions noted are these: Mus musculus, BaF3, c-KIT V560G/D816V cells, read-out: Cell (nM) c-KIT V560G/D816V (GI50 class). The experiment is classed as cell-based. Here is the method: Ba/F3-TEL-PDGFRα(WT), Ba/F3-TEL-PDGFβ(WT), Ba/F3-c-KIT(D816V) (Kyinno, #KC-0138), c-KIT V560G/D816V, c-KIT D814Y were seeded at 3×10^3/100 μl/well in a clear bottom white 96-well plate. A culture solution containing compounds of 12 concentrations (0.00001-2 mM) serially diluted in 3 folds and the DMSO control group was added at 0.5 μl/well each to a final concentration of 0.00005-10 μM, and then incubated in a CO2 incubator at 37° C. for 72 hours. After 72 hours, the plate treated with the compound was taken out, CellTiter-Glo® Assay (Promega) solution was treated with 100 μl/well, followed by mixing well. After mixing well for about 10 minutes at room temperature, […] was measured using a microplate reader. The data were presented as percentages in proportion to treated cells based on the vehicle, GI50 (nM) values were calculated using GraphPad Prism 8.3.0 (GraphPad software Inc., San Diego).
The inhibitory activities of Ba/F3 expressing PDGFR-α, PDGFR-β, c-KIT(D816V), c-KIT V560G/D816V, and c-KIT D814Y measured as described above were measured and shown in Table 7 below (A: GI50≤200 nM; B: 200 nM<GI50≤500 nM; C: GI50>500 nM).
(In general: In ATP-based viability assays light output follows the ATP content of the culture.)
Turning to `COc1cc2c(-c3ccc(NC(=O)Cc4ccc(C(F)(F)F)cc4)cc3)ncnc2cc1OCC1CCN(C(=O)OC(C)(C)C)CC1` [Example 15, tert-butyl 4-(((6-methoxy-4-(4-(2-(4-(trifluoromethyl)phenyl)acetamido)phenyl)quinazolin-7-yl)oxy)methyl)piperidin-1-carboxylate], the GI50 was over 500 nM. As for `COc1cc2c(-c3ccc(NC(=O)Cc4ccc(C(F)(F)F)cc4)cc3)ncnc2cc1OCC1CCNCC1` [Example 17, N-(4-(6-methoxy-7-(piperidin-4-ylmethoxy)quinazolin-4-yl)phenyl)-2-(4-(trifluoromethyl)phenyl)acetamide], the GI50 was at most 200 nM. Take `COc1cc2c(-c3ccc(NC(=O)C(C)(C)c4ccc(F)cc4)cc3)ncnc2cc1OCC1CCNCC1` [Example 88, 2-(4-fluorophenyl)-N-(4-(6-methoxy-7-(piperidin-4-ylmethoxy)quinazolin-4-yl)phenyl)-2-methylpropanamide]: the GI50 fell in the range of 200 to 500 nM.

Regarding `COc1cc2c(-c3ccc(NC(=O)C4(c5ccc(F)cc5)CC4)cc3)ncnc2cc1OCC1CCNCC1` [Example 91, 1-(4-fluorophenyl)-N-(4-(6-methoxy-7-(piperidin-4-ylmethoxy)quinazolin-4-yl)phenyl)cyclopropane-1-carboxamide], the GI50 is 200 to 500 nM. As for `COCCN1CCC(COc2cc3ncnc(-c4ccc(NC(=O)C5(c6ccc(F)cc6)CC5)cc4)c3cc2OC)CC1` [Example 92, 1-(4-fluorophenyl)-N-(4-(6-methoxy-7-((1-(2-methoxyethyl)piperidin-4-yl)methoxy)quinazolin-4-yl)phenyl)cyclopropane-1-carboxamide], the GI50 lay in the range of 200 to 500 nM. Turning to `CCN1CCC(COc2cc3ncnc(-c4ccc(NC(=O)C5(c6ccc(F)cc6)CC5)cc4)c3cc2OC)CC1` [Example 93, N-(4-(7-((1-ethylpiperidin-4-yl)methoxy)-6-methoxyquinazolin-4-yl)phenyl)-1-(4-fluorophenyl)cyclopropane-1-carboxamide], the GI50 is 200 to 500 nM. Regarding `COCCN1CCC(COc2cc3ncnc(-c4ccc(NC(=O)Cn5cc(C(C)C)nn5)cc4)c3cc2OC)CC1` [Example 94, 2-(4-isopropyl-1H-1,2,3-triazole-1-yl)-N-(4-(6-methoxy-7-((1-(2-methoxyethyl)piperidin-4-yl)methoxy)quinazolin-4-yl)phenyl)acetamide], the GI50 is over 500 nM. Consider `COCCN1CCC(COc2cc3ncnc(-c4ccc(NC(=O)Cn5cc(C(C)(C)C)nn5)cc4)c3cc2OC)CC1` [Example 95, 2-(4-(tert-butyl)-1H-1,2,3-triazole-1-yl)-N-(4-(6-methoxy-7-((1-(2-methoxyethyl)piperidin-4-yl)methoxy)quinazolin-4-yl)phenyl)acetamide], for which the GI50 is over 500 nM.

On to `COc1cc2c(-c3ccc(NC(=O)Cc4ccc(C(F)(F)F)cc4)cc3)ncnc2cc1OCC1CCN(C(C)=O)CC1` [Example 102, N-(4-(7-((1-acetylpiperidin-4-yl)methoxy)-6-methoxyquinazolin-4-yl)phenyl)-2-(4-(trifluoromethyl)phenyl)acetamide], for which the GI50 was at most 200 nM. With `COc1ccc(CC(=O)Nc2ccc(-c3ncnc4cc(OCC5CCN(C(C)=O)CC5)c(OC)cc34)cc2)cn1` [Example 103, N-(4-(7-((1-acetylpiperidin-4-yl)methoxy)-6-methoxyquinazolin-4-yl)phenyl)-2-(6-methoxypyridin-3-yl)acetamide] the figure was 200 to 500 nM; with `COc1cc2c(-c3ccc(NC(=O)Cc4ccc(C(F)(F)F)nc4)cc3)ncnc2cc1OCC1CCN(C(C)=O)CC1` [Example 104, N-(4-(7-((1-acetylpiperidin-4-yl)methoxy)-6-methoxyquinazolin-4-yl)phenyl)-2-(6-(trifluoromethyl)pyridin-3-yl)acetamide], 200 to 500 nM. `COc1cc2c(-c3ccc(NC(=O)Cn4cc(C(C)C)nn4)cc3)ncnc2cc1OCC1CCN(C)CC1` [Example 105, 2-(4-isopropyl-1H-1,2,3-triazole-1-yl)-N-(4-(6-methoxy-7-((1-methylpiperidin-4-yl)methoxy)quinazolin-4-yl)phenyl)acetamide]: the GI50 is over 500 nM.
